{"source": "patent US12098352B2", "about": "“Stem cell-based lung-on-chip models” (EMULATE, INC., priority 2018, dated 2024)", "system": "IL-6, IL-8 and MCP-1", "experiment": "Cytokine secretion in chip medium effluent (ELISA)", "type": "cell-based, human", "description": "We studied interaction between different chip compartments by perturbating the system with biological and chemical stressors such as LPS, and H2O2 which are known to induce a reversible disruption of the cellular monolayer after acute administration both in vivo and in vitro. […] To assess changes in the barrier function following the exposure to these insults, we added a fluorescent dye (e.g. […]—Dextran-FITC) to the endothelial compartment, which is under control condition confirmed that the endothelium and epithelium form a barrier to the dies. The presence of a strong barrier is also indirectly confirmed by the presence of continuous pattern of E-cad and VE-cad in the monolayer of Alveolar epithelial and endothelial cell, respectively. […] We also decoupled the effect of single biological component to the inflammatory response by selectively removing them from the system in an integrated matrix. […] In fact, the recorded value of IL-6 and IL-8 is not the algebraic sum of the concentration of the factors released by the single cellular components. […]\nThe amount of Surfactant B and C was collected from chip epithelial cell surface by PBS washing and measured by Human SFTPB/Surfactant Protein B ELISA Kit (Sandwich ELISA)—LS-F4439 and Human SFTPC/Surfactant Protein C ELISA Kit (Sandwich ELISA)—LS-F12438 (LifeSpanBioScience) following the manufacturer's protocol. The color reaction was measured at 450 nm with a photometer (specification). […] Similarly, the presence of IL-6, IL-8 and MPC in medium samples was detected by Human TLR-induced Cytokines II: Microbial-induced Multi-Analyte ELISArray Kit (MEH-008A) (Qiogen) following the manufacturer's protocol. The color reaction was measured at 450 nm with a photometer (specification). […]"}
{"substance": "Lipopolysaccharide [LPS]", "values": [{"measurement": "release of IL-6, IL-8 and MCP-1 in medium effluent", "setting": "24 hours of exposure", "result": "increases of lung specific cytokines"}, {"measurement": "IL-6, IL-8 and MCP-1 secretion, fold increase in relation to untreated controls", "setting": "LPS stimulation, co-presence of epithelial cells", "result": "40-90 fold"}]}
